Test results: patent publication US5770623A, “Argine antagonists for inhibition of systemic hypotension associated with nitric oxide production or endothelial derived relaxing factor” (Board of Regents, The University of Texas System, priority 1995, dated 1998)
Where two headings read alike, the source gives them in different places.

How the values were obtained:
[1] = system: murine endothelial cells exposed to Gamma-Interferon and TNF (nitric oxide production); test: Inhibition of nitrite production by MBEC exposed to IFN (100 U/ml) and TNF (500 U/ml); type: cell-based; conditions: for IC50: Mus musculus, Endothelial cell, 48 h, read-out: ED50% (effective dose that inhibited 50% of the nitrite production); for potency ranking as inhibitor of nitric oxide production: analogs of Table 5
Method: Endothelial cells--MBEC's were isolated from murine brain microvessels and cultured on gelatin-coated tissue culture dishes in DME/F12 media supplemented with 2% PPPHS, 5% FBS (Hyolone), 50 μg/ml ECGF (Biomed Tech), and 10 U/ml heparin (Sigma) as previously described (Belloni et al. 1989). The endothelial derivation of MBEC's was determined by the presence of a non-thrombogenic surface to platelets and immunofluorescent staining for Factor VIII related antigen. MBEC's were used between passage 6-9 for all experiments.
Nitrite Assay--MBE cells were cultured on gelatin-coated well plates (Corning) in 100 μl of culture medium and treated with cytokines at 3 days post-confluence. After 48 hours, nitrite production was determined by a colorimetric assay. […] All treatments were performed in triplicate and data presented as the mean value±standard deviation. […]
production by murine endothelial cells exposed to GammaInterferon (100
U/ml) and TNF (500 U/ml) in vitro.

[2] = system: murine brain endothelial cells (MBEC); test: Nitrite production by MBEC exposed to cytokines / immunomodulators (Griess assay); type: cell-based; conditions: IFN 100 U/ml, TNF 500 U/ml, IL-1 10 U/ml, endotoxin 1 μg/ml; 48 hours
[3] = system: mongrel dogs with TNF-induced hypotension; test: TNF-induced hypotension in anesthetized dogs; type: in vivo, dog; conditions: dog, FIG. 25
Method: Recombinant human TNF specific activity 2×10^7 units/mg, was from the Niposn Chemical Corporation, Tokyo, Japan. TNF was administered at a dose of 10 mcg/kg in a volume of 10 ml of phosphate buffered saline containing 2 mgs/ml of dog albumin. […] Arginine was obtained from Sigma Chemical Company, St. Louis, Mo.
Four conditioned mongrel dogs, 2 males and 2 females, weighing 28 to 30 kgs, were studied. Care of the animals were in accordance with the recommendation of the American Association for Accreditation of Laboratory Animals [DHEW(DHHS) publication no. (NIH) 78-23, revised, 1978]. On the day of the experiment, the dogs were fasted overnight. They were anesthetized with phenobarbital (10 mg/kg). They were then intubated orally with a #10 fr. endotracheal tube and ventilated with a Harvard pump ventilator at a rate of 12 breaths per minute and a tidal volume of 15 ml/kg. An arterial line was percutaneously placed in the femoral artery on the day of the experiment.
Mean (electronic) and phasic systemic arterial pressures (SAP) were continuously recorded on a Hewlett-Packard recording system (model 7758B) using strain gauge manometers (Hewlett-Packard model 1290A) which were connected to the arterial line. Heart rate (HR) was determined from an EKG tracing and continuously recorded on the Hewlett-Packard recording system. Oxyhemoglobin saturation (SaO2) was obtained using a pulse oximeter (BIOX 111, Boulder, Colo.). continuous time-series records of SAP, HR, and SaO2 were obtained using a Lab Master analog-to-digital convertor (16 channel, 12 bit, 30 kHz; Scientific Solutions, Inc.) sampling at 55 Hz and storing the 6 sec averages on a magnetic disk.

[4] = system: guinea pig pulmonary artery rings; test: Relaxation of preconstricted guinea pig pulmonary artery rings; conditions: for inhibition of EDRF/NO synthesis: guinea pig pulmonary artery rings, 1 μM NE, ACh
L929 cells = test: Cytolytic activity of rh-TNF against Actinomycin D-treated L929 cells; type: cell-based, murine; conditions: murine L929 cells, in vitro
Method: TNF bioactivity was measured by the cytotoxicity towards murine L929 cells, in vitro.

lethal ET shock animal = test: Reversal of lethal-dose endotoxin shock by N^G-aminoarginine; type: in vivo
Method: The reversal of ET shock (lethal dose) by N^G -aminoarginine (NAA) for 4 hrs. […] FIG. 26 depicts systemic arterial pressure (SAP) versus time (min). ET (2 mg/kg), a lethal dose, was infused over 60 min. and NAA administered at 97, 165, and 374 min. to maintain blood pressure. The animal was survived for 24 hours and then autopsied.

[5] = system: systemic hypotension mediated by interleukin-1; test: Interleukin-1 mediated systemic hypotension; type: in vivo; conditions: FIG. 27
[6] = system: nitroglycerin-treated dogs; test: Nitroglycerin-induced hypotension in dogs (Example 4); type: in vivo, dog; conditions: Table 1, Study 2: Nitroglycerin-treated (n = 3)
Method: Animals: Studies were carried out on 12 conditioned mongrel dogs (9 males and 3 females) weighing 22-32 kg (avg=25.3 kg). Animal care was in accordance with the recommendations of the American Association for Accreditation of Laboratory Animal Care, and met all standards prescribed by the Guide for the Care and Use of Laboratory Animals (Guide for the Care and Use of Laboratory Animals (1978) Dept. of Health, Education and Welfare, Washington, D.C. (Publ. No. 78-23). Animal protocols were approved by The University of Texas Animal Welfare Committee. The dogs were fasted overnight prior to the day of experimentation. They were anesthetized with sodium pentobarbital (25 mg/kg I.v.). Dogs were then endotracheally intubated and ventilated with a piston-driven respirator (Harvard instruments) using room air at a tidal volume of 20 ml/kg and at a rate of 10 to 12 breaths per minute, adjusted to achieve a normal arterial pH and pCO2 (Instrumentation Laboratories 1L13012 pH/Blood Gas Analyzer). Catheters were placed percutaneously into the femoral and pulmonary arteries; In the latter, a flow-directed thermal-dilation catheter was used (Abbott Critical Care Systems).
Physiologic measurements: Mean SAP and heart rate were continuously monitored (Parametron 7048 Monitoring System, Roche) and stored on a magnetic disk using an analog-to-digital converter (Scientific Solutions, Inc.). Cardiac output (CO) was determined as the mean of six measurements by thermal-dilution. Systemic vascular resistance was calculated as (SAP X80)/CO and expressed as […].
Protocol: After the blood pressure and heart rate stabilized, endotoxin (40 ug/kg, in 10 ml of phosphate-buffered saline (PBS), pH 7.4) was infused i.v. over 2 minutes. This dose of endotoxin typically induces severe and often lethal cardiovascular collapse in the dog. Blood pressure was monitored, and when either SAP fell below 60 mmHg or a stable nadir in systemic arterial pressure (SAP) was maintained for 10 minutes, L-NMA was administered (20 mg/kg in 5 ml of PBS i.v. over 1 min.). In most experiments, L-arginine (400 mg/kg in 20 mi PBS) was administered ten minutes later by i.v. infusion over 2 minutes. In control experiments, dogs without prior exposure to endotoxin received L-NMA alone. To simulate the hypotension observed in dogs receiving endotoxin, one group of dogs received a continuous i.v. infusion of nitroglycerin (2 mg/ml) at a rate adjusted to maintain the SAP at 60-70 mm Hg. Nitroglycerin-treated dogs then received L-NMA (20 mg/kg) and 20 minutes later L-arginine was administered […].
In an additional series of experiments, blood pressure was reduced to 65 mm Hg by continuous i.v. infusion of nitroglycerin, a hypotensive agent that forms NO by an L-arginine and NO synthetase-independent mechanism.

rabbit aortic rings = test: ACh-induced relaxation of isolated rabbit aortic rings; conditions: isolated rabbit aortic rings, FIG. 9b
From the text: FIG. 9b compares concentration-response relationships for the same set of mono- and disubstituted arginine analogs as FIG. 9a, plus an additional dimethyl analog with the two methyl groups on different guanidino nitrogens. The test is for inhibition of ACh-induced vasorelaxation in isolated rabbit aortic rings. The points plotted represent means±S.E. of the maximum responses to ACh observed in the presence of the indicated concentrations of analogs (n=4).
Guinea pig pulmonary artery (GP PA), rat and rabbit aorta (Ao), and dog coronary (CA) and femoral artery (FA) were precontracted with NE (1 μM) and relaxed with a single concentration of ACh. Concentration of ACh: GP PA 1 μM, rat Ao […], rabbit Ao 0.3, dog CA […] and […] 0.1 μM. […] The concentrations of L-citrulline (L-cit), D-arginine (D-arg) and L-arginine (L-arg) were all 0.5 mM. Bars are mean values±SEM (n=4-6).
FIG. 11 contains representative physiograph tracings which depict ACh-induced relaxation of NE-preconstricted rings prepared from rabbit aorta (upper panel) and human internal mammary artery (lower panel).

[7] = system: bovine aortic endothelial cells (BAEC); test: A23187-stimulated nitrite release from bovine aortic endothelial cells; type: cell-based; conditions: 2-hr, L-arginine-free medium, FIG. 9a
Method: The % inhibition of relaxation is calculated from the maximum ACh-induced relaxation observed in the presence of the arginine analog relative to that in its absence. Points represent mean values±SEM (n=4-6). […] Another N^G substitution tested for inhibition of induced nitrite release had two methyl groups on one of the arginine guanidino nitrogens. Concentration-response relationships for inhibition of A23187-stimulated nitrite release by bovine aortic endothelial cells (BAEC) are shown in FIG. 9a for the N,N-disubstituted derivative in comparison with several monosubstituted derivatives. Nitrite production was measured as an indication of nitric oxide synthesis since nitric oxide spontaneously decays to nitrite. Nitrite production by BAEC in a 2-hr. period was assessed in an L-arginine-free medium alone or in the presence of the indicated concentration of arginine analogs. The points plotted represent means±S.E. of the percent inhibition of nitrite production observed in 3 individual BAEC culture wells. The key on FIG. 9a indicates the groups substituted on the guanidino nitrogens of L-arginine.
Points are mean values±SEM (n=3).

[8] = system: isolated guinea pig heart; test: Histamine-induced nitrite release and coronary flow in isolated perfused guinea pig heart; conditions: histamine-elicited
Method: Histamine was administered as a rapid bolus injection into the aorta and net nitrite release during the subsequent 2.5 minutes was determined.

[9] = target: EMT6 enzyme system (NO formation from L-arginine) (Mus musculus, UniProt P29477); test: Arginine-dependent nitrite synthesis by cytosol of stimulated EMT6 cells; type: biochemical, murine
Method: Thus EMT6 cytosolic preparations (i.e., cell-free solutions) were prepared and an enzyme activity was characterized which forms NO and citrulline from arginine. This reaction requires NADPH (FIG. 18 and 19) and other cofactors.
Incubation mixtures were 100 μl total volume containing: 40 μl cytosol (100,000×g supernatant), 2 mM L-arginine, 2 mM NADPH, 20 mM TRIS (pH 8.0) and a "cocktail" of protease inhibitors.
From kinetic studies an apparent Michaelis-Menton constant for L-arginine utilization by the enzyme was deduced. FIG. 20 is a Lineweaver-Burke plot for synthesis of nitrite from L-arginine by cytosol from stimulated EMT6 cells. The rate of nitrite formation was evaluated over a range of L-arginine (ARG) concentrations (from 0.03-2.0 mM) under conditions similar to that described for FIG. 18, except that incubates contained 50 μl cytosol in a total volume of 80 μl. Open and filled circles represent results obtained with each of two cytosol preparations. […] N^G -substituted arginine analogs were screened for precise quantitation of their ability to inhibit arginine-dependent NO formation by the EMT6 enzyme system.

anesthetized guinea pig = test: Pressor effect in the anesthetized guinea pig; type: in vivo; conditions: 1-10 mg/kg i.v. (L-NMA)
From the text: Points are mean changes in diastolic arterial pressure (±SEM; n=4-5). Control systolic and diastolic BP was 75±3 and 51±3 mm Hg, respectively.

[10] = murine endothelial cells, Gamma-Interferon (100 U/ml) and TNF (500 U/ml), in vitro

Chain of EMT6 enzyme system (NO formation from L-arginine) (P29477 whole entry): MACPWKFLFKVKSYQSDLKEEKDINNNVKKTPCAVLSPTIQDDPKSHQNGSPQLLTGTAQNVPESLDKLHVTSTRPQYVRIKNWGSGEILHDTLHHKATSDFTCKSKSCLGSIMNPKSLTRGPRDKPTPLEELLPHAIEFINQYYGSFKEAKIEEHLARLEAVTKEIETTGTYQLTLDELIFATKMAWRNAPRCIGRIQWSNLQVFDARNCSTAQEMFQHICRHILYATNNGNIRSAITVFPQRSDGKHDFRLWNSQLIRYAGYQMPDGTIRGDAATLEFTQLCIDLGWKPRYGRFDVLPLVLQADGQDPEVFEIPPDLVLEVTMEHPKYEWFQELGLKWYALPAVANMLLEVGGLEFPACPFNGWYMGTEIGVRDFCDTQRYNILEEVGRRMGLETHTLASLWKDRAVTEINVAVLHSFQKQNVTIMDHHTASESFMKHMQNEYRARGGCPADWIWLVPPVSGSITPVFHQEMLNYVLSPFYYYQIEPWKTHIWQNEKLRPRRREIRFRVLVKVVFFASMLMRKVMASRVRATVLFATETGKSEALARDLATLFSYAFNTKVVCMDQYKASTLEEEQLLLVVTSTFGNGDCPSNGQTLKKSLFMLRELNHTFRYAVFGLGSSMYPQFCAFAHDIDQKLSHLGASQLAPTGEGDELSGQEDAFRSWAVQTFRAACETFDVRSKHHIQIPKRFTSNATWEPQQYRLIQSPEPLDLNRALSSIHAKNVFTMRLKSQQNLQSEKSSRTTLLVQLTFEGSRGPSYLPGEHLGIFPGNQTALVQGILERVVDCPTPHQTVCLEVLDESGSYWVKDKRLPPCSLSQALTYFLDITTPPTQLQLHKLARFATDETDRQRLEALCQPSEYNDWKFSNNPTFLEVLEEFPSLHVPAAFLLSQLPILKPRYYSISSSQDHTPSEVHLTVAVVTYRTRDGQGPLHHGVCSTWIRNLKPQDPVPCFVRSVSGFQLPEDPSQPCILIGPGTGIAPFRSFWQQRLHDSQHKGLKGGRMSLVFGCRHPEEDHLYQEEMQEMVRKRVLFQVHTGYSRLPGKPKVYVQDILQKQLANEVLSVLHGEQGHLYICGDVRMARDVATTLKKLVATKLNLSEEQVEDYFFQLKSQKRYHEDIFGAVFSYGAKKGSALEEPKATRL

## N=C(NCCC[C@H](N)C(=O)OCc1ccccc1)N[N+](=O)[O-] [Nitro-L-Arginine benzyl ester]
[1]; [10]
  IC50: > 1200 µM

## N=C(NCCC[C@@H](N)C(=O)O)N[N+](=O)[O-] [Nitro-D-Arginine]
[1]; [10]
  IC50: > 4500 µM

## CC(=O)N[C@H]1C(O)O[C@H](CO)[C@@H](O)[C@@H]1O[C@H](C)C(=O)N[C@@H](C)C(=O)N[C@H](CCC(=O)O)C(N)=O (stereo partly drawn) [muramyl dipeptide (MDP), muramyl dipeptide, reference compound]
[2]
  effect on nitrite production by MBEC: Neither muramyl dipeptide (MDP) or Il-2 alone, or in combination with IFN effected nitrite production

## COC(=O)[C@H](N)CCCNC(=N)N[N+](=O)[O-] [Nitro-D-Arginine methyl ester]
[1]
  IC50: > 4500 µM

## N=C(NN)NCCC[C@H](N)C(=O)O [Aminoarginine, L-N^G -aminoarginine]
[3]
  effectiveness in reversing TNF hypotension vs NMMA: more effective than NMMA
[4]; compounds tested thus far
  activity ranking in inhibition of ACh-induced relaxation: greatest activity
[4]
  inhibition of EDRF/NO synthesis: served as inhibitors of EDRF/NO synthesis
L929 cells
  effect on cytolytic effect of TNF towards tumor cells: did not alter the cytolytic effect of TNF
[1]
  IC50: 110 µM
  potency ranking as inhibitor of nitric oxide production: most potent inhibitor of nitric oxide production measured thusfar
[1]; listed as N^G -aminoarginine
  potency ranking as inhibitor of nitric oxide production: most potent derivative tested
Lethal ET shock animal; ET 2 mg/kg, multiple NAA doses, then autopsied
  survival: 24 h
Lethal ET shock animal; liver, lungs, heart, brain, bowel or kidney
  pathological changes at autopsy: No pathological changes
[5]
  reversal of IL-1 mediated hypotension: reverse systemic hypotension

## O=[N+]([O-])OCC(CO[N+](=O)[O-])O[N+](=O)[O-] [Nitroglycerin]
[6]
  Cardiac Output: 2.72 ± 0.27 L/min
  Heart Rate: 137.3 ± 5.0 beats/min
  Systemic Arterial Pressure: 64.7 ± 2.7 mmHg
  Systemic Vascular Resistance: 1924 ± 132 dynes-sec/cm^5

## COC(=O)[C@@H](N)CCCNC(=N)N[N+](=O)[O-] [Nitro-L-Arginine methyl ester]
[1]
  IC50: 1830 µM

## CNC(=N)NCCC[C@@H](N)C(=O)O [D-NMA, reference compound]
[4]
  inhibition of EDRF/NO synthesis: not an inhibitor of EDRF/NO synthesis

## CN(C)C(=N)NCCC[C@H](N)C(=O)O [Me,Me--]
[4]
  inhibition of EDRF/NO synthesis: served as inhibitors of EDRF/NO synthesis
Rabbit aortic rings
  inhibition of ACh-induced vasorelaxation: active inhibitor
[7]
  potency for inhibition of A23187-stimulated nitrite release: approximately equipotent to L-N^G -methylarginine

## CN=C(NC)NCCC[C@H](N)C(=O)O [Me,Me'--]
Rabbit aortic rings
  inhibition of ACh-induced vasorelaxation: not a good inhibitor

## NCCc1c[nH]cn1 [histamine, reference compound]
[8]
  effect on coronary flow (vasodilation): dose-dependent increase in coronary flow

## N=C(NCCC[C@H](N)C(=O)O)N[N+](=O)[O-] [Nitro-L-Arginine, N^G -nitroarginine]
[4]
  inhibition of EDRF/NO synthesis: served as inhibitors of EDRF/NO synthesis
[1]; [10]
  IC50: 2120 µM

## CCNC(=N)NCCC[C@H](N)C(=O)O [L-N^G -ethylarginine (L-NEA), L-N^G -ethylarginine]
[9]; Lineweaver-Burke
  mode of inhibition: competitive inhibitor
[9]; compared with NMMA, FIG. 22
  fold less active than NMMA: approximately 10 -fold
Anesthetized guinea pig
  effect on diastolic BP / pressor effect (words): sustained pressor effect
